Positions count from the first letter of the chain named.
Assays:
P2X7 wild type = molecular target: T1, P2X7 wild type (Homo sapiens, UniProt Q99572); assay: YO-PRO-1 uptake fluorimetric plate assay in transfected HEK 293 cells, P2X7 wild type; format: cell-based; conditions: HEK cells expressing P2X7 wild type, HEPES-buffered saline
T1 construct: expressed in transfected cells
T1 sequence (Q99572 1-595): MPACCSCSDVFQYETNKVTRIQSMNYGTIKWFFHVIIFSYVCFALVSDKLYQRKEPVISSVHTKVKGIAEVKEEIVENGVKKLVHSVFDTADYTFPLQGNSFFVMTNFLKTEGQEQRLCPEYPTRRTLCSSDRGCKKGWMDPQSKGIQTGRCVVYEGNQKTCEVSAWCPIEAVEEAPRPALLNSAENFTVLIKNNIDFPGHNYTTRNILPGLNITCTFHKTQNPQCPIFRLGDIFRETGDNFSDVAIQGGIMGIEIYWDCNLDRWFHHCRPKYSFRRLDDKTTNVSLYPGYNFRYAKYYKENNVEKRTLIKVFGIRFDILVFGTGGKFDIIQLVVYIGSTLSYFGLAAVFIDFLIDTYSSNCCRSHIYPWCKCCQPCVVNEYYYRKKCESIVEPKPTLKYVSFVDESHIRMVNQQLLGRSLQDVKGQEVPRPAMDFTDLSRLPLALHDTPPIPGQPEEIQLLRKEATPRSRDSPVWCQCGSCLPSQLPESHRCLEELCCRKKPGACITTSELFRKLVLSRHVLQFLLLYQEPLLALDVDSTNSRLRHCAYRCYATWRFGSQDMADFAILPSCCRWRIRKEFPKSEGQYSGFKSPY
Description: (§1) Recombinant Expression and Functional Characterization of Variant P2RX7 Alleles. A pcDNA3 expression vector containing a cloned human P2RX7 cDNA associated with normal pore activity was subjected to point mutagenesis using the Quick Change Kit (Stratagene Inc., city, state) to create the variants P2X7-G150R, P2X7-Q460R, and P2X7-E496A. HEK 293 cells were transfected by the Superfect liposomal method and stable populations were selected by G418 resistance. Expression of P2X7 mRNA and protein in unstimulated transfected HEK cell cultures was verified by RT-PCR and immunoblotting as previously described.
(§2) YO-PRO-1 fluorescence was measured by a Synergy-HT fluorescent plate reader (Biotek, city, state) using X±Y nm excitation and A±B emission filters.

P2X7-E496A = molecular target: T2, P2X7-E496A (Homo sapiens, UniProt Q99572, E496A); assay: YO-PRO-1 uptake fluorimetric plate assay in transfected HEK 293 cells, P2X7-E496A; format: cell-based; conditions: E496A variant
T2 construct: expressed in transfected cells
T2 sequence (Q99572 1-595 E496A): T1 sequence (Q99572 1-595) with E496A
Description: as §1, §2

Substance: 2′-3′-O-(4-benzoylbenzoyl)-adenosine 5′-triphosphate [Bz-ATP]
- EC50 (P2X7 wild type): 30 µM
- increase of YO-PRO-1 fluorescence by Bz-ATP stimulation (P2X7 wild type): roughly four
- increase in YO-PRO-1 fluorescence (P2X7-E496A; potassium glutamate buffer): approximately half-maximal increase
- agonist-inducible pore activity (P2X7-E496A; saline-containing buffers): lacking agonist-inducible pore activity

Reference: patent US7960131B2, “Functional genomic pore assay for mixed cell populations” (Wisconsin Alumni Research Foundation, priority 2003, dated 2011)
